Among the test systems are A549 NSCLC; HT29 colon; CCRF-CEM leukemia; HOP-62 NSCLC; NCI-H522 lung; HL-60(TB) leukemia; T-47D breast; OVCAR-8 ovarian; SF-268 CNS; 786-0 renal; SNB-19 CNS; KM12 colon; LOX IMVI melanoma; HCT-15 colon; SNB-75 CNS.
Holding throughout (assay): NCI anticancer screen, dose series, 48 h

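A five-concentration, 48-hour dose response in 96-well plates underlies each endpoint, interpolated linearly between surrounding concentrations. The concentration for full growth arrest is given as TGI.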 *1 amine or outer side, *2 acyl side, *3 side chain or, on linkers, in order; H or OH if unused. Where a SMILES comes first, the peptide text is derived from it. Bridges are numbered along the chain shown (N, C = ends). [ ]: non-standard residue; d: D form. X35 = CC[C@H](C)[C@@H](N[*:1])[C@@H](O)CC(=O)O[C@H](C(=O)[C@H](C)C(=O)[*:2])C(C)C; NMeY = CN[C@@H](Cc1ccc(O)cc1)C(=O)O A value given as a limit tells only on which side of the number the result lay.

Turning to `O=Cc1ccc2ccocc1-2`, the TGI with A549 NSCLC, in the experiment with HT29 colon, in the experiment with CCRF-CEM leukemia, with HOP-62 NSCLC, in the experiment with NCI-H522 lung and in the experiment on HL-60(TB) leukemia was more than 100 µM throughout. For the same compound, the TGI in the experiment with T-47D breast, in the experiment with OVCAR-8 ovarian, in the experiment on SF-268 CNS, in the experiment on 786-0 renal, with SNB-19 CNS and in the experiment with KM12 colon was more than 100 µM in each case. The TGI in the experiment with LOX IMVI melanoma and with HCT-15 colon was more than 100 µM in each case.
Turning to `CN(c1ccccc1)c1cc2ccccc2nn1`, the TGI with A549 NSCLC, in the experiment with HT29 colon, in the experiment with CCRF-CEM leukemia, with HOP-62 NSCLC, in the experiment on NCI-H522 lung and in the experiment on HL-60(TB) leukemia was more than 100 µM each time. For the same compound, the TGI in the experiment with OVCAR-8 ovarian, in the experiment on SF-268 CNS, in the experiment with 786-0 renal, in the experiment on SNB-75 CNS, in the experiment on SNB-19 CNS and in the experiment on KM12 colon was more than 100 µM in each case. In addition, the TGI with LOX IMVI melanoma and in the experiment with HCT-15 colon was more than 100 µM in each case.
On to `CC1(C)Cc2c(sc3[nH]c(=S)[nH]c(=S)c23)CS1`, for which the TGI in the experiment on A549 NSCLC is more than 100 µM; with HT29 colon, more than 100 µM; in the experiment with CCRF-CEM leukemia, more than 100 µM; in the experiment with HOP-62 NSCLC, more than 100 µM; in the experiment with HL-60(TB) leukemia it was 92.7 µM; with T-47D breast, 61.4 µM. Also, the TGI with OVCAR-8 ovarian, in the experiment on SF-268 CNS, with 786-0 renal, in the experiment with SNB-19 CNS, in the experiment with KM12 colon and in the experiment on LOX IMVI melanoma was more than 100 µM throughout. In the experiment with HCT-15 colon, this compound had a TGI of more than 100 µM.
Regarding `CCOC(=O)C1=C(C)N(c2ccc(Cl)cc2)C2(O)C=CC(=O)C3=C(O)c4ccccc4C(=O)C312` (centres undefined), the TGI was found to be 21.8 µM in the experiment on A549 NSCLC; 6.69 µM with CCRF-CEM leukemia; 18.9 µM with HOP-62 NSCLC; 6.45 µM in the experiment on NCI-H522 lung; 5.77 µM in the experiment on HL-60(TB) leukemia; 15.8 µM in the experiment on T-47D breast. Also, the TGI in the experiment on OVCAR-8 ovarian worked out at 19.1 µM; with SF-268 CNS, 6.86 µM; in the experiment with 786-0 renal it was 4.07 µM; in the experiment on SNB-19 CNS, 33.1 µM; in the experiment with KM12 colon, 20.4 µM; with LOX IMVI melanoma, 14 µM. The same compound had a TGI in the experiment on HCT-15 colon of 14 µM.
As for `CCN(CC)C(=O)CCn1cc(F)c(=O)[nH]c1=O`, the TGI with A549 NSCLC, in the experiment with HT29 colon, in the experiment with CCRF-CEM leukemia, in the experiment on HOP-62 NSCLC, with NCI-H522 lung and with HL-60(TB) leukemia was more than 100 µM in each case. For the same compound, the TGI in the experiment on OVCAR-8 ovarian, in the experiment on SF-268 CNS, in the experiment on 786-0 renal, in the experiment on SNB-75 CNS, in the experiment on SNB-19 CNS and with KM12 colon was more than 100 µM throughout. The TGI with LOX IMVI melanoma and in the experiment on HCT-15 colon was more than 100 µM in each case.
Turning to `CC[C@H](C)[C@H]1NC(=O)[C@@H](N)[C@@H](C)OC(=O)[C@H](Cc2ccc(OC)cc2)N(C)C(=O)[C@@H]2CCCN2C(=O)[C@H](CC(C)C)NC(=O)[C@@H](C)C(=O)[C@H](C(C)C)OC(=O)C[C@@H]1O` (H-T[X35]LP[NMeY](Me); ester 1-C), the TGI was more than 100 µM with A549 NSCLC; 38.8 µM in the experiment on HT29 colon; more than 100 µM in the experiment with CCRF-CEM leukemia; more than 100 µM in the experiment with HOP-62 NSCLC; 25.1 µM in the experiment with NCI-H522 lung; more than 100 µM in the experiment with HL-60(TB) leukemia. The TGI in the experiment on OVCAR-8 ovarian is more than 100 µM; with SF-268 CNS, more than 100 µM; with 786-0 renal, more than 100 µM; in the experiment on SNB-75 CNS, more than 100 µM; in the experiment on SNB-19 CNS it was more than 100 µM; in the experiment with KM12 colon, 68.1 µM. In addition, the TGI with LOX IMVI melanoma and in the experiment with HCT-15 colon was more than 100 µM in each case.
With `COc1cccc(NC(=O)CSc2nnc(Cc3ccccc3)o2)c1`, the TGI in the experiment on A549 NSCLC, in the experiment on HT29 colon, in the experiment with CCRF-CEM leukemia, in the experiment on HOP-62 NSCLC, with NCI-H522 lung and with HL-60(TB) leukemia was more than 100 µM each time. Moreover, the TGI with OVCAR-8 ovarian, with SF-268 CNS, with 786-0 renal, in the experiment with SNB-75 CNS, in the experiment with SNB-19 CNS and in the experiment with KM12 colon was more than 100 µM each time. Also, the TGI in the experiment on LOX IMVI melanoma and in the experiment on HCT-15 colon was more than 100 µM each time.
As for `CC[C@H](C)[C@@H]([C@@H](CC(=O)N1CCC[C@H]1[C@H](OC)[C@@H](C)C(=O)NCCc1ccccc1)OC)N(C)C(=O)C(NC(=O)[C@H](C(C)C)N(C)C)C(C)C` (some centres undefined), the TGI with A549 NSCLC is 1.1 µM; in the experiment with HT29 colon, 0.00163 µM; in the experiment with HOP-62 NSCLC, 3.02 µM; with NCI-H522 lung, 0.000434 µM; in the experiment with T-47D breast it was more than 10 µM; in the experiment on OVCAR-8 ovarian, more than 10 µM. Moreover, the TGI in the experiment on SF-268 CNS was more than 10 µM; with 786-0 renal, 1.34 µM; with KM12 colon, 0.00178 µM; with LOX IMVI melanoma, more than 10 µM; in the experiment on HCT-15 colon, more than 10 µM.
Regarding `Cc1cc(C)c(NS(=O)c2cccc(C(F)(F)F)c2)c(C)c1` (centres undefined), the TGI with A549 NSCLC, in the experiment on HT29 colon, with CCRF-CEM leukemia, in the experiment on HOP-62 NSCLC, in the experiment on HL-60(TB) leukemia and with T-47D breast was more than 100 µM in each case. Moreover, the TGI in the experiment on OVCAR-8 ovarian, in the experiment on SF-268 CNS, with 786-0 renal, in the experiment on SNB-19 CNS, in the experiment with KM12 colon and in the experiment on HCT-15 colon was more than 100 µM in each case.

These data come from PubChem BioAssay (NCI).
